Laboratory results as given in EP1247803A2, “Indolinone compounds suitable for modulation of protein kinases” (Sugen, Inc., priority 1996, dated 1998).

Key:
FLK-1 receptor = biological target: T1, FLK-1 receptor (Mus musculus, UniProt P35918); test: FLK-1 ELISA (kinase activity of the FLK-1 receptor in FLK-1/NIH3T3 cells, VEGF stimulated); type: cell-based
T1 construct: expressed in transfected cells; host or cells: NIH3T3 C7#3
Outline: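 An ELISA using affinity-purified rabbit anti-FLK-1 antiserum on anti-rabbit IgG-coated plates measured VEGF-stimulated FLK-1 kinase activity. NIH3T3 C7#3 cells carrying FLK-1 were serum-starved (0.1% FBS) overnight, then exposed to compound (final 1:200 dilution, 0.5% DMSO) for two hours at 37 °C.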

PDGF-R = PDGF-R (Homo sapiens, UniProt P09619); test: PDGF-R ELISA; type: cell-based
From the text: A PDGF-R ELISA is described in International Patent Publication No. WO 96/40116, published December 19, 1996 by Tang et al.

PDGF-R, sequence (P09619 33-1106, species assumed): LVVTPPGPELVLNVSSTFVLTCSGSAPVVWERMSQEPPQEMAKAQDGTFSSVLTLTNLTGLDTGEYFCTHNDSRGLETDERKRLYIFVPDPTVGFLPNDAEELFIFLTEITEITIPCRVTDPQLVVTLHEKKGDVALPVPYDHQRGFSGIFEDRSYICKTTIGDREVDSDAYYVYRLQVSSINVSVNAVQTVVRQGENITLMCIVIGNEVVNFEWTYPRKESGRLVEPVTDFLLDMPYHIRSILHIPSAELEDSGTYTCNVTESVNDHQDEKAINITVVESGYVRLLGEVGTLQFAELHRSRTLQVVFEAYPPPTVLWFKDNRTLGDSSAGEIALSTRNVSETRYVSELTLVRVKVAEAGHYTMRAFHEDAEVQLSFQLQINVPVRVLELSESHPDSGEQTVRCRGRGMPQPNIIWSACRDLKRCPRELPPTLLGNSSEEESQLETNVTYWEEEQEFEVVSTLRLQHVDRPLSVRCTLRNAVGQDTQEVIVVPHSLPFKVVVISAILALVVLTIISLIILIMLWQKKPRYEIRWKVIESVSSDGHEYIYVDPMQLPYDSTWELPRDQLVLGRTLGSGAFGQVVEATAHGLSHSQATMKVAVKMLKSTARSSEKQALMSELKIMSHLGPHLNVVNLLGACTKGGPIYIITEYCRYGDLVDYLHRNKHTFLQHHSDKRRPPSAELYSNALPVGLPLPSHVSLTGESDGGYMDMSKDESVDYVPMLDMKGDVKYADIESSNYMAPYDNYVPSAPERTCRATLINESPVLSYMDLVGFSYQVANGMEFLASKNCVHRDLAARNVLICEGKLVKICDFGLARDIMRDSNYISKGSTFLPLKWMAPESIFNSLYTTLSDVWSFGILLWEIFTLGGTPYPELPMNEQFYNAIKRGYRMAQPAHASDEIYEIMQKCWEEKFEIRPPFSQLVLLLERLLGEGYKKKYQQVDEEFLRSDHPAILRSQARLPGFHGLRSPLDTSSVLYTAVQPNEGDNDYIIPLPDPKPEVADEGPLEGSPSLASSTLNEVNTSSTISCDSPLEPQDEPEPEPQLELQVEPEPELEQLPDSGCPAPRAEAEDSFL
T1 sequence (P35918 20-1345): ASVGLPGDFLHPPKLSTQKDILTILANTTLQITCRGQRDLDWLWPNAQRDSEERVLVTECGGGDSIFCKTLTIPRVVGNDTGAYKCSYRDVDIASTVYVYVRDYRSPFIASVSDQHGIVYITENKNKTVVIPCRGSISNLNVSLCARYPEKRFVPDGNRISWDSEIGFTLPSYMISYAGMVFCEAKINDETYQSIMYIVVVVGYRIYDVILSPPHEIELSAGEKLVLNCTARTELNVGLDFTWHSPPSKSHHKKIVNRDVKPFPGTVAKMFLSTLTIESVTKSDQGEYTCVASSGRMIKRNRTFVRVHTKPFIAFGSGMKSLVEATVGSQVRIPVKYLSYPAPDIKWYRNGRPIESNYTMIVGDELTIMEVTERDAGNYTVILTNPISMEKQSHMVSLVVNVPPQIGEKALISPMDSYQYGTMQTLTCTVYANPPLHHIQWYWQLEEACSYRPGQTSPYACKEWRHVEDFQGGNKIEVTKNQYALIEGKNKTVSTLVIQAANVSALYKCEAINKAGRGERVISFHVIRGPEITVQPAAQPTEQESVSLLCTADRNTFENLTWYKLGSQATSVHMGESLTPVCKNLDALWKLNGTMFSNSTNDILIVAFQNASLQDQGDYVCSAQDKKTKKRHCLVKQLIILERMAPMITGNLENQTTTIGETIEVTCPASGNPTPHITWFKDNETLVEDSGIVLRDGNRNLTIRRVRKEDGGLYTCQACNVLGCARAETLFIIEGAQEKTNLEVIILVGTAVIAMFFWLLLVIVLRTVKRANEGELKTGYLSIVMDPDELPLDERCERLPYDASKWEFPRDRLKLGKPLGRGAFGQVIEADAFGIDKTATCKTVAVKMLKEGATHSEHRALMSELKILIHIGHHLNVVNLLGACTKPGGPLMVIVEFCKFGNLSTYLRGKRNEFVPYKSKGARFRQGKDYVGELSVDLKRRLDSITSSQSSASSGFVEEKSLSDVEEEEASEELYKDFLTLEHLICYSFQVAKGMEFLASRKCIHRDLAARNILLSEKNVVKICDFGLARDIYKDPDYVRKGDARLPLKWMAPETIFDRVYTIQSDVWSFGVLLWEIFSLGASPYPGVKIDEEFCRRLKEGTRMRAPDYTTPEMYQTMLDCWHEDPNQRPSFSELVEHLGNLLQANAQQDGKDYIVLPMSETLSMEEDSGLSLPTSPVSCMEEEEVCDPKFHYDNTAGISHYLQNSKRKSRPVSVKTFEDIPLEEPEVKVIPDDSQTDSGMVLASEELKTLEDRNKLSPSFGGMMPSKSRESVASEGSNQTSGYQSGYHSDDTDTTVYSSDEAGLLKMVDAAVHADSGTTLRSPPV

Compound	Fik Kinase %Inhibition (FLK-1 receptor) [%]	PDGF Kinase %Inhibition (PDGF-R) [%]
O=C1Nc2ccc(S(=O)(=O)Nc3ccc(C(F)(F)F)cc3)cc2C1=Cc1cc(Cl)cc(Cl)c1O [10734/E03]	26.9	27.2
O=C1Nc2ccc(I)cc2C1=Cc1ccc(O)c(Br)c1 [10734/B09]	-32.3	12.6
Cc1c(Br)ccc2c1C(=Cc1cc(Cl)ccc1O)C(=O)N2 [10734/C04]	-37.6	24.5
CCOC(=O)c1cc(C=C2C(=O)Nc3ccc(S(=O)(=O)Nc4ccc(C(F)(F)F)cc4)cc32)oc1C [10718/E06]	15.4	–
COc1c([N+](=O)[O-])cc(C=C2C(=O)Nc3ccc(CCCl)cc32)cc1C(C)(C)C [10733/G03]	24.7	12.7
COc1c(O)ccc(C=C2C(=O)Nc3ccc(S(=O)(=O)N4CCOCC4)cc32)c1[N+](=O)[O-] [10733/F11]	4.1	-17.8
CC(C)(C)c1cc(C=C2C(=O)Nc3ccc(S(=O)(=O)N4CCOCC4)cc32)cc(I)c1OCc1ccccc1 [10733/F02]	-15.7	3.8
CC(C)(C)c1cc(C=C2C(=O)Nc3ccc(CCCl)cc32)cc(C(C)(C)C)c1OCc1ccccc1 [10733/G05]	19.2	-1.1
O=C1Nc2ccc(I)cc2C1=Cc1cc(Cl)cc(Cl)c1O [10734/B03]	21.7	13.0
O=C1Nc2ccc(S(=O)(=O)Nc3ccc(C(F)(F)F)cc3)cc2C1=Cc1ccc(Cl)c([N+](=O)[O-])c1 [10718/E08]	9.2	–
O=C1Nc2ccc(S(=O)(=O)Nc3ccc(C(F)(F)F)cc3)cc2C1=Cc1cc([N+](=O)[O-])ccc1O [10733/E10]	5.5	10.3
O=C1Nc2ccc(S(=O)(=O)Nc3ccc(C(F)(F)F)cc3)cc2C1=Cc1ccco1 [10718/E10]	15.2	–
CC(C)(C)c1cc(C=C2C(=O)Nc3ccc(CCCl)cc32)cc(I)c1OCc1ccccc1 [10733/G02]	8.3	-7.6
Cc1[nH]c(C=C2C(=O)Nc3c(Br)cc(Br)cc32)c(Br)c1Br [10717/A11]	-5.8	–
Cc1c(Br)ccc2c1C(=Cc1cccc(F)c1O)C(=O)N2 [10734/C08]	-34.2	5.5
Cc1cc(C=C2C(=O)Nc3ccc(CCCl)cc32)cc(C)c1OCc1ccccc1 [10733/G07]	19.5	-6.8
O=C1Nc2c(Br)cc(Br)cc2C1=Cc1ccc(Br)s1 [10734/A11]	6.3	5.5
COc1c(C(C)(C)C)cc(C=C2C(=O)Nc3ccc(CCCl)cc32)cc1C(C)(C)C [10733/G04]	11.5	11.9
CCOc1cccc(C=C2C(=O)Nc3ccc(I)cc32)c1O [10734/B02]	8.5	-2.9
O=C1Nc2c(Br)cc(Br)cc2C1=Cc1ccc(O)c(Br)c1 [10734/A09]	-7.9	-9.5
COc1c(C(C)(C)C)cc(C=C2C(=O)Nc3ccc(S(=O)(=O)Nc4ccc(C(F)(F)F)cc4)cc32)cc1C(C)(C)C [10733/E04]	2.1	-13.7
CC(C)(C)c1ccc(C=C2C(=O)Nc3ccc(I)cc32)cc1 [10734/B10]	15.7	7.7
O=C1Nc2ccc(CCCl)cc2C1=Cc1cc(Br)ccc1O [10733/G09]	77.8	-17.0
CNS(=O)(=O)c1ccc2c(c1)C(=Cc1cc(Br)cc(Br)c1O)C(=O)N2 [10734/D07]	14.7	28.1
CC(C)(C)c1cc(C=C2C(=O)Nc3ccc(S(=O)(=O)Nc4ccc(C(F)(F)F)cc4)cc32)cc(C(C)(C)C)c1OCc1ccccc1 [10733/E05]	10.6	-33.2
Cc1c(Br)ccc2c1C(=Cc1ccc(C(C)(C)C)cc1)C(=O)N2 [10734/C10]	10.1	17.4

Compound	Fik Kinase %Inhibition (FLK-1 receptor) [%]	PDGF Kinase %Inhibition (PDGF-R) [%]
O=C1Nc2ccc(S(=O)(=O)N3CCOCC3)cc2C1=Cc1cc(Br)ccc1O [10733/F09]	-2.1	-0.3
CNS(=O)(=O)c1ccc2c(c1)C(=Cc1cccc(F)c1O)C(=O)N2 [10734/D08]	2.5	2.0
Cc1c(Br)ccc2c1C(=Cc1ccc(Br)s1)C(=O)N2 [10734/C11]	6.3	9.1
CC(C)(C)c1ccc(C=C2C(=O)Nc3c(Br)cc(Br)cc32)cc1 [10734/A10]	4.4	26.3
CNS(=O)(=O)c1ccc2c(c1)C(=Cc1cc(Cl)cc(Cl)c1O)C(=O)N2 [10734/D03]	17.4	24.1
CNS(=O)(=O)c1ccc2c(c1)C(=Cc1cc(Cl)ccc1O)C(=O)N2 [10734/D04]	6.1	13.5
Cc1c(Br)ccc2c1C(=Cc1cc(Br)cc(Br)c1O)C(=O)N2 [10734/C07]	-2.7	32.0
Cc1cc(C=C2C(=O)Nc3ccc(S(=O)(=O)N4CCOCC4)cc32)cc(C)c1OCc1ccccc1 [10733/F07]	16.4	1.7
O=C1Nc2c(Br)cc(Br)cc2C1=Cc1cccc(F)c1O [10734/A08]	0.1	9.1
COc1c(O)ccc(C=C2C(=O)Nc3ccc(S(=O)(=O)Nc4ccc(C(F)(F)F)cc4)cc32)c1[N+](=O)[O-] [10733/E11]	5.5	15.9
COc1c(O)ccc(C=C2C(=O)Nc3ccc(CCCl)cc32)c1[N+](=O)[O-] [10733/G11]	3.3	-4.4
CCN(CC)c1ccc(C=C2C(=O)Nc3ccc(S(=O)(=O)NC)cc32)c(O)c1 [10734/D05]	2.4	8.2
COc1cc(Br)cc(C=C2C(=O)Nc3ccc(CCCl)cc32)c1O [10733/G08]	2.5	68.7
Cc1c(Br)ccc2c1C(=Cc1ccc(O)c(Br)c1)C(=O)N2 [10734/C09]	-13.3	11.3
COc1c(C)cc(C=C2C(=O)Nc3ccc(S(=O)(=O)N4CCOCC4)cc32)cc1C [10733/F06]	19.3	-4.8
CNS(=O)(=O)c1ccc2c(c1)C(=Cc1ccc(O)c(Br)c1)C(=O)N2 [10734/D09]	-11.6	42.2
Cc1cc(C=C2C(=O)Nc3ccc(S(=O)(=O)Nc4ccc(C(F)(F)F)cc4)cc32)cc(C)c1OCc1ccccc1 [10733/E07]	13.2	29.3
O=C1Nc2ccc(S(=O)(=O)Nc3ccc(C(F)(F)F)cc3)cc2C1=Cc1ccc([N+](=O)[O-])o1 [10718/E11]	12.1	–
CCN(CC)c1ccc(C=C2C(=O)Nc3c(Br)cc(Br)cc32)c(O)c1 [10734/A05]	9.1	2.9
O=C1Nc2ccc(S(=O)(=O)N3CCOCC3)cc2C1=Cc1cc([N+](=O)[O-])ccc1O [10733/F10]	8.5	-5.6
COc1cc(Br)cc(C=C2C(=O)Nc3ccc(S(=O)(=O)Nc4ccc(C(F)(F)F)cc4)cc32)c1O [10733/E08]	-5.1	75.2
O=C1Nc2ccc(S(=O)(=O)Nc3ccc(C(F)(F)F)cc3)cc2C1=Cc1ccc2ccccc2c1O [10718/E04]	15.1	–
COC(=O)c1[nH]c(C)c(C=C2C(=O)Nc3ccc(S(=O)(=O)Nc4ccc(C(F)(F)F)cc4)cc32)c1C(=O)OC [10718/E07]	15.6	–
CCOC(=O)CCc1c(C(=O)OCC)[nH]c(C=C2C(=O)Nc3ccc(S(=O)(=O)Nc4ccc(C(F)(F)F)cc4)cc32)c1CC(=O)OCC [10718/E05]	16.1	–
Cc1c(O)ccc(C=C2C(=O)Nc3ccc(S(=O)(=O)Nc4ccc(C(F)(F)F)cc4)cc32)c1O [10718/E09]	0.9	–
